# Measurements from ChEMBL document CHEMBL4649983, “Selective targeting of the BRG/PB1 bromodomains impairs embryonic and trophoblast stem cell maintenance” (Sci Adv, 2015).
# Several values for one entry are separate records, joined by “and”; a condition that tells them apart may be missing. Equal entries are not always repeated.
# Assays:
# [1] = biological target: Bromodomain-containing protein 2 (Homo sapiens) (UniProt P25440); details: Compound concentration 10.0 uM, Protein concentration 2.0 uM
# [2] = biological target: Protein polybromo-1 (Homo sapiens) (UniProt Q86U86); experiment: Thermal Shift Assay. Domain start/stop: H23-D159; details: Compound concentration 10.0 uM, Protein concentration 2.0 uM
# Peregrin (Homo sapiens) [3] = biological target: Peregrin (Homo sapiens) (UniProt P55201); details: Compound concentration 10.0 uM, Protein concentration 2.0 uM
# [4] = biological target: Bromodomain-containing protein 4 (Homo sapiens) (UniProt O60885); details: Compound concentration 10.0 uM, Protein concentration 2.0 uM
# [5] = biological target: Transcription intermediary factor 1-alpha (Homo sapiens) (UniProt O15164); details: Compound concentration 10.0 uM, Protein concentration 2.0 uM
# [6] = biological target: Nucleosome-remodeling factor subunit BPTF (Homo sapiens) (UniProt Q12830); details: Compound concentration 10.0 uM, Protein concentration 2.0 uM
# [7] = biological target: Histone acetyltransferase KAT2B (Homo sapiens) (UniProt Q92831); details: Compound concentration 10.0 uM, Protein concentration 2.0 uM
# [8] = biological target: Bromodomain and PHD finger-containing protein 3 (Homo sapiens) (UniProt Q9ULD4); details: Compound concentration 10.0 uM, Protein concentration 2.0 uM
# [9] = biological target: Nuclear body protein SP140-like protein (Homo sapiens) (UniProt Q9H930); details: Compound concentration 10.0 uM, Protein concentration 2.0 uM
# [10] = biological target: Bromodomain adjacent to zinc finger domain protein 1A (Homo sapiens) (UniProt Q9NRL2); details: Compound concentration 10.0 uM, Protein concentration 2.0 uM
# [11] = biological target: Protein polybromo-1 (Homo sapiens) (UniProt Q86U86); details: Compound concentration 10.0 uM, Protein concentration 2.0 uM
# [12] = biological target: Histone acetyltransferase KAT2A (Homo sapiens) (UniProt Q92830); details: Compound concentration 10.0 uM, Protein concentration 2.0 uM
# [13] = biological target: Bromodomain-containing protein 9 (Homo sapiens) (UniProt Q9H8M2); details: Compound concentration 10.0 uM, Protein concentration 2.0 uM
# [14] = biological target: Transcription intermediary factor 1-beta (Homo sapiens) (UniProt Q13263); details: Compound concentration 10.0 uM, Protein concentration 2.0 uM
# [15] = biological target: Transcription initiation factor TFIID subunit 1 (Homo sapiens) (UniProt P21675); details: Compound concentration 10.0 uM, Protein concentration 2.0 uM
# [16] = biological target: Protein polybromo-1 (Homo sapiens) (UniProt Q86U86); details: Compound concentration 10.0 uM, Protein concentration 2.0 uM; remark: listed apart in the source
# [17] = biological target: ATPase family AAA domain-containing protein 2 (Homo sapiens) (UniProt Q6PL18); details: Compound concentration 10.0 uM, Protein concentration 2.0 uM
# [18] = biological target: Bromodomain and WD repeat-containing protein 3 (Homo sapiens) (UniProt Q6RI45); details: Compound concentration 10.0 uM, Protein concentration 2.0 uM
# [19] = biological target: Bromodomain-containing protein 3 (Homo sapiens) (UniProt Q15059); details: Compound concentration 10.0 uM, Protein concentration 2.0 uM
# [20] = biological target: Transcription intermediary factor 1-alpha (Homo sapiens) (UniProt O15164); details: Compound concentration 10.0 uM, Protein concentration 2.0 uM; remark: listed apart in the source
# [21] = biological target: Bromodomain-containing protein 3 (Homo sapiens) (UniProt Q15059); experiment: Thermal Shift Assay. Domain start/stop: P24-E144; details: Compound concentration 10.0 uM, Protein concentration 2.0 uM
# [22] = biological target: Protein polybromo-1 (Homo sapiens) (UniProt Q86U86); details: Protein concentration 2.0 uM
# [23] = biological target: Protein polybromo-1 (Homo sapiens) (UniProt Q86U86); experiment: Thermal Shift Assay. Domain start/stop: R487-D598; details: Compound concentration 10.0 uM, Protein concentration 2.0 uM
# [24] = biological target: Histone acetyltransferase p300 (Homo sapiens) (UniProt Q09472); experiment: Thermal Shift Assay. Domain start/stop: A1040-S1171; details: Compound concentration 10.0 uM, Protein concentration 2.0 uM
# [25] = biological target: Bromodomain adjacent to zinc finger domain protein 2B (Homo sapiens) (UniProt Q9UIF8); details: Compound concentration 10.0 uM, Protein concentration 2.0 uM
# [26] = biological target: Nuclear body protein SP140 (Homo sapiens) (UniProt Q13342); details: Compound concentration 10.0 uM, Protein concentration 2.0 uM
# [27] = biological target: Transcription initiation factor TFIID subunit 1 (Homo sapiens) (UniProt P21675); details: Compound concentration 10.0 uM, Protein concentration 2.0 uM; remark: listed apart in the source
# [28] = biological target: Bromodomain-containing protein 4 (Homo sapiens) (UniProt O60885); details: Compound concentration 10.0 uM, Protein concentration 2.0 uM; remark: listed apart in the source
# [29] = biological target: Histone acetyltransferase p300 (Homo sapiens) (UniProt Q09472); details: Compound concentration 10.0 uM, Protein concentration 2.0 uM
# [30] = biological target: Chromatin remodeling regulator CECR2 (Homo sapiens) (UniProt Q9BXF3); details: Compound concentration 10.0 uM, Protein concentration 2.0 uM
# [31] = biological target: CREB-binding protein (Homo sapiens) (UniProt Q92793); details: Compound concentration 10.0 uM, Protein concentration 2.0 uM
# [32] = biological target: Bromodomain-containing protein 1 (Homo sapiens) (UniProt O95696); details: Compound concentration 10.0 uM, Protein concentration 2.0 uM
# [33] = biological target: Protein polybromo-1 (Homo sapiens) (UniProt Q86U86); details: Compound concentration 10.0 uM, Protein concentration 2.0 uM; remark: listed apart in the source
# [34] = biological target: SWI/SNF-related matrix-associated actin-dependent regulator of chromatin subfamily A member 4 (Homo sapiens) (UniProt P51532); details: Compound concentration 10.0 uM, Protein concentration 2.0 uM
# [35] = biological target: Protein polybromo-1 (Homo sapiens) (UniProt Q86U86); details: Protein concentration 2.0 uM; remark: listed apart in the source
# [36] = biological target: Bromodomain testis-specific protein (Homo sapiens) (UniProt Q58F21); details: Compound concentration 10.0 uM, Protein concentration 2.0 uM
# [37] = biological target: Transcription initiation factor TFIID subunit 1-like (Homo sapiens) (UniProt Q8IZX4); details: Compound concentration 10.0 uM, Protein concentration 2.0 uM
# [38] = biological target: Bromodomain testis-specific protein (Homo sapiens) (UniProt Q58F21); details: Compound concentration 10.0 uM, Protein concentration 2.0 uM; remark: listed apart in the source
# [39] = biological target: Histone-lysine N-methyltransferase ASH1L (Homo sapiens) (UniProt Q9NR48); details: Compound concentration 10.0 uM, Protein concentration 2.0 uM
# [40] = biological target: Transcription initiation factor TFIID subunit 1-like (Homo sapiens) (UniProt Q8IZX4); details: Compound concentration 10.0 uM, Protein concentration 2.0 uM; remark: listed apart in the source
# [41] = biological target: PH-interacting protein (Homo sapiens) (UniProt Q8WWQ0); details: Compound concentration 20.0 uM, Protein concentration 25.0 uM
# Description: Alphascreen assay. Domain start/stop: D1302-R1434
# [42] = biological target: Bromodomain and WD repeat-containing protein 1 (Homo sapiens) (UniProt Q9NSI6); details: Compound concentration 10.0 uM, Protein concentration 2.0 uM
# [43] = biological target: Bromodomain-containing protein 2 (Homo sapiens) (UniProt P25440); details: Compound concentration 10.0 uM, Protein concentration 2.0 uM; remark: listed apart in the source
# Peregrin (Homo sapiens) [44] = biological target: Peregrin (Homo sapiens) (UniProt P55201); details: Compound concentration 10.0 uM, Protein concentration 2.0 uM; remark: listed apart in the source
# [45] = biological target: Tripartite motif-containing protein 66 (Homo sapiens) (UniProt O15016); experiment: Thermal Shift Assay. Domain start/stop: M1091-S1218; details: Compound concentration 10.0 uM, Protein concentration 2.0 uM
# [46] = biological target: ATPase family AAA domain-containing protein 2B (Homo sapiens) (UniProt Q9ULI0); details: Compound concentration 10.0 uM, Protein concentration 2.0 uM
# [47] = biological target: SWI/SNF-related matrix-associated actin-dependent regulator of chromatin subfamily A member 2 (Homo sapiens) (UniProt P51531); details: Compound concentration 10.0 uM, Protein concentration 2.0 uM
# [48] = biological target: SWI/SNF-related matrix-associated actin-dependent regulator of chromatin subfamily A member 2 (Homo sapiens) (UniProt P51531); experiment: Thermal Shift Assay. Domain start/stop: A1373-E1493; details: Compound concentration 10.0 uM, Protein concentration 2.0 uM
# [49] = biological target: PH-interacting protein (Homo sapiens) (UniProt Q8WWQ0); details: Compound concentration 10.0 uM, Protein concentration 2.0 uM
# [50] = biological target: Bromodomain adjacent to zinc finger domain protein 2A (Homo sapiens) (UniProt Q9UIF9); details: Compound concentration 10.0 uM, Protein concentration 2.0 uM
# [51] = Compound concentration 100.0 uM
# Chain of SWI/SNF-related matrix-associated actin-dependent regulator of chromatin subfamily A member 2 (Homo sapiens) (P51531 whole entry): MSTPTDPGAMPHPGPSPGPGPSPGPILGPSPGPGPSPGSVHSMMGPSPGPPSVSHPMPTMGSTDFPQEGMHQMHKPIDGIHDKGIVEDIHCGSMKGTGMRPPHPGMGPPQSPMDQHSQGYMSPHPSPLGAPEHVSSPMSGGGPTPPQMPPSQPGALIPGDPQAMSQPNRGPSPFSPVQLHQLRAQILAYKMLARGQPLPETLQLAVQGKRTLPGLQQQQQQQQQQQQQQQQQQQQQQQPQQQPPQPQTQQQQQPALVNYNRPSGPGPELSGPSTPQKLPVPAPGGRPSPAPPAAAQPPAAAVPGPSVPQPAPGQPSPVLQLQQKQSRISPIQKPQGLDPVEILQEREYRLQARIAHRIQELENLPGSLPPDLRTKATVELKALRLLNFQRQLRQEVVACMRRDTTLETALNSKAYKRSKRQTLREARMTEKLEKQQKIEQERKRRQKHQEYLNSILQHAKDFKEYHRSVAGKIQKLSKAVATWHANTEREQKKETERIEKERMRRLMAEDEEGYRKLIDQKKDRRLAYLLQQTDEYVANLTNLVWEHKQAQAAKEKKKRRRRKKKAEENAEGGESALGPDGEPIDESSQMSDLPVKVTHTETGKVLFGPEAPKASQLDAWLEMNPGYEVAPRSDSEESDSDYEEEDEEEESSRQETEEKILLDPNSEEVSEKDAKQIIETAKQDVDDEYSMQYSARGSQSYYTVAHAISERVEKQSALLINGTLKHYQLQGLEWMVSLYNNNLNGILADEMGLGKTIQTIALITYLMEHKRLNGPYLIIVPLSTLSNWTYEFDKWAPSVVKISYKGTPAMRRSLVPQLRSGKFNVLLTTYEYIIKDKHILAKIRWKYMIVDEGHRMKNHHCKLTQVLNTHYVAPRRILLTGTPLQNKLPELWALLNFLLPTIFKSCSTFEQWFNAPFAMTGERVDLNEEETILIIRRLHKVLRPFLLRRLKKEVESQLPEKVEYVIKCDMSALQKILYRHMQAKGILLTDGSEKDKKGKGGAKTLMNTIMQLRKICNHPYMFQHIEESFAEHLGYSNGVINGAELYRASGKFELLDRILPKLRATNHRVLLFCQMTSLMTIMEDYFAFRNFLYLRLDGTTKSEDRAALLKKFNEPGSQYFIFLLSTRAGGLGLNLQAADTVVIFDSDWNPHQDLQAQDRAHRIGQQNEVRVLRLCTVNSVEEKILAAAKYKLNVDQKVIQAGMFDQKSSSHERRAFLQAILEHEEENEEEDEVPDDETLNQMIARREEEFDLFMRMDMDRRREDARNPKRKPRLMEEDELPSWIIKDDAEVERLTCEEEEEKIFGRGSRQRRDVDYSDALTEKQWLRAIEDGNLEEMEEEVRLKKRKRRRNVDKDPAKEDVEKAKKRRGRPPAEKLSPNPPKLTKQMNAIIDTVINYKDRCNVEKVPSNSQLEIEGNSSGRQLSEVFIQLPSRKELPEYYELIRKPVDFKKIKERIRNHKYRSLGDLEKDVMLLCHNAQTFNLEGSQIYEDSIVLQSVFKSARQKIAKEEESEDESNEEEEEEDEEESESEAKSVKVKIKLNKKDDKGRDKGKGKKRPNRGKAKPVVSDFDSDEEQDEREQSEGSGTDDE
# Chain of Protein polybromo-1 (Homo sapiens) (Q86U86 whole entry, the tested form may be a part): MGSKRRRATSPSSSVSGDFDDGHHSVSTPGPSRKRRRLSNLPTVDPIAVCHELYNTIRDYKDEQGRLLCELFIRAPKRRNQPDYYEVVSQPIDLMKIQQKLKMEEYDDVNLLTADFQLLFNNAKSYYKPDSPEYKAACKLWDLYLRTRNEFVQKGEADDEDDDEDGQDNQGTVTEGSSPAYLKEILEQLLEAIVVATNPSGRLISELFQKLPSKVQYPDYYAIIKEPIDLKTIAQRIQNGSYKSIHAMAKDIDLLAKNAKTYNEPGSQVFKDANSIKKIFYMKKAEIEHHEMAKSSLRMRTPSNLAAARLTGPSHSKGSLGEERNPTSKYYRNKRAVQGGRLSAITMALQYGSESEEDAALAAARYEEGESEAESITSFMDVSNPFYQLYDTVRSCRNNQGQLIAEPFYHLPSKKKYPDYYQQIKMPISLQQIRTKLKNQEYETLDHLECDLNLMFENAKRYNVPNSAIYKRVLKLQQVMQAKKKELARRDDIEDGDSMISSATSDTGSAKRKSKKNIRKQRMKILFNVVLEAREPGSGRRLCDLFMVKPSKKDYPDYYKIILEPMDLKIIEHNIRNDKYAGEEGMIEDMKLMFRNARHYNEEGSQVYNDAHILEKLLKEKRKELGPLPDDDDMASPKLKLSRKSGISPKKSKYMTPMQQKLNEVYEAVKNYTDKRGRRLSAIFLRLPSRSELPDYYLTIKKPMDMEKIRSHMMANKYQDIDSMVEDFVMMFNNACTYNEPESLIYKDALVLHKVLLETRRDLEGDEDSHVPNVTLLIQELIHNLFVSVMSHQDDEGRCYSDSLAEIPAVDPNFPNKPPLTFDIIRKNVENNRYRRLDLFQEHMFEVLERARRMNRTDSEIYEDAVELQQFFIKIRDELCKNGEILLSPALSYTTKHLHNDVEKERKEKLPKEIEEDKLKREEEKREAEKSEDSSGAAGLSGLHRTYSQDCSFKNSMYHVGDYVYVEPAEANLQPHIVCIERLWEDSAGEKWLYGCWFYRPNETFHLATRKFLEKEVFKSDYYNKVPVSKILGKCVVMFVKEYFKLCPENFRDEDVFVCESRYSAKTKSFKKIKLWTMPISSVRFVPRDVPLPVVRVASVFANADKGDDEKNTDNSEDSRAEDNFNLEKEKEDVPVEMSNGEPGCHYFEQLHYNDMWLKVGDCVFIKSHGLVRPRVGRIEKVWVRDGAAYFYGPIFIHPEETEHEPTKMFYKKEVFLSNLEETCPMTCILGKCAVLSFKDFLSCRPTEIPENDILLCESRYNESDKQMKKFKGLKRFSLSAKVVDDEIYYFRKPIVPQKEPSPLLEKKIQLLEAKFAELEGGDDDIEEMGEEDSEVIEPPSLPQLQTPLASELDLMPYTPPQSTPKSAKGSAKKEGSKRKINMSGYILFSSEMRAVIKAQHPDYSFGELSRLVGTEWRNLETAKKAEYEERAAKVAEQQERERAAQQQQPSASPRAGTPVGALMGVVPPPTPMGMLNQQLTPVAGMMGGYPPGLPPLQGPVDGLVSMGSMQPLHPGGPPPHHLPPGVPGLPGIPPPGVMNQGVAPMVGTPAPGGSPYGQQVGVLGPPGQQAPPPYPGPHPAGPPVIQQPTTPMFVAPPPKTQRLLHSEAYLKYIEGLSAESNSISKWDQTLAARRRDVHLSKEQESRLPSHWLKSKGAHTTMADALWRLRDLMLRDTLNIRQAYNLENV
# Chain of SWI/SNF-related matrix-associated actin-dependent regulator of chromatin subfamily A member 4 (Homo sapiens) (P51532 whole entry): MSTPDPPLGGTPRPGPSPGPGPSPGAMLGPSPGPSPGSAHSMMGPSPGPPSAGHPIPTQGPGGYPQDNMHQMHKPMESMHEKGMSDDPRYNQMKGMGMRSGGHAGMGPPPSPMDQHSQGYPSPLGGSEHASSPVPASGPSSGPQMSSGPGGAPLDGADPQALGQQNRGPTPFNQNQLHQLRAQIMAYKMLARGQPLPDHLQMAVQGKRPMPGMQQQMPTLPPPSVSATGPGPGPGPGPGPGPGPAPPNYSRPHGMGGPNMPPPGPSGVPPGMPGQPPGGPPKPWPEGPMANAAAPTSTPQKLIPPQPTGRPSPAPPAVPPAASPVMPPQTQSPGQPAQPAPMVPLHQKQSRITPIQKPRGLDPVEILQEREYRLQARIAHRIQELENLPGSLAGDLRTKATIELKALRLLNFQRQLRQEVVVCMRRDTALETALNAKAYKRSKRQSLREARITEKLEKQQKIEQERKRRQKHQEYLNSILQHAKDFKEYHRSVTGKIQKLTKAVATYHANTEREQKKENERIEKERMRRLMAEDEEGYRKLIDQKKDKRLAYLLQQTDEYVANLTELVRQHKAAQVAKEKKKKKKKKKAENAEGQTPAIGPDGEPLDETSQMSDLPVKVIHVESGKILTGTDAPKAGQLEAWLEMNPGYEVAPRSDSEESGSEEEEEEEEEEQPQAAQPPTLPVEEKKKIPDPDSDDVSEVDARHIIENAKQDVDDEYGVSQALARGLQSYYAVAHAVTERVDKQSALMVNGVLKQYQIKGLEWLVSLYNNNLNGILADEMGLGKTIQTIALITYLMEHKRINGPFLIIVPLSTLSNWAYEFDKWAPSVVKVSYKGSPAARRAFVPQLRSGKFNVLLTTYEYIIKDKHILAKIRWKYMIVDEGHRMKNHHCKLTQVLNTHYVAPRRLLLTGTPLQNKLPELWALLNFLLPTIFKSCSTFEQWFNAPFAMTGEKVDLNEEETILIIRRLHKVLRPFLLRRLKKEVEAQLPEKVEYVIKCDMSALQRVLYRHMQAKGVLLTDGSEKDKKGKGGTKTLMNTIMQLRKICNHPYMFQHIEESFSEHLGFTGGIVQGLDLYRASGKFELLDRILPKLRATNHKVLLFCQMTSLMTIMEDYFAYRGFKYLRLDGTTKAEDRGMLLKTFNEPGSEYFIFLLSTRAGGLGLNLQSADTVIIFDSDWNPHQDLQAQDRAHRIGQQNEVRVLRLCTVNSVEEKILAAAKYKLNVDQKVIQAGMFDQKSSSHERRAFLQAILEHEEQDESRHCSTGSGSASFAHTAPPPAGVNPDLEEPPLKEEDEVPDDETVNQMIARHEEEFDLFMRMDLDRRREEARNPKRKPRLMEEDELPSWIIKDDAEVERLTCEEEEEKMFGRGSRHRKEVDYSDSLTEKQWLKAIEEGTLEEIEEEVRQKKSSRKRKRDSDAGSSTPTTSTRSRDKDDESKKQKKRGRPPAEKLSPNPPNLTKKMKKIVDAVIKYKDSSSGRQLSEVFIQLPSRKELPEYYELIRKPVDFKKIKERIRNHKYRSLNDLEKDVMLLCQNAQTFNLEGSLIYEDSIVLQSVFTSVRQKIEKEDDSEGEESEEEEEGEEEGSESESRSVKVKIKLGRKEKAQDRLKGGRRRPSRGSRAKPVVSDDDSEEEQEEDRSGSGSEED
smiles,measurement,setting,value
O=C(/C=C/N1C[C@H]2C[C@@H]1CN2c1ccccn1)c1ccccc1O,ΔTm,[1],0 °C
same,ΔTm,[2],0.05 °C
same,ΔTm,Peregrin (Homo sapiens) [3],1.12 °C
same,ΔTm,[4],0.36 °C and -0.62 °C
same,ΔTm,[5],0.79 °C
same,ΔTm,[6],0.61 °C
same,ΔTm,[7],0.71 °C and -0.1 °C
same,ΔTm,[8],1.15 °C
same,ΔTm,[9],1.02 °C
same,ΔTm,[10],0.92 °C
same,ΔTm,[11],10 °C
same,ΔTm,[12],0.77 °C
same,ΔTm,[13],1.22 °C and 0.26 °C
same,ΔTm,[14],0.43 °C
same,ΔTm,[15],0.75 °C
same,ΔTm,[16],0.85 °C
same,ΔTm,[17],0.59 °C and -0.66 °C
same,ΔTm,[18],1.25 °C
same,ΔTm,[19],0.84 °C
same,ΔTm,[20],0.65 °C
same,ΔTm,[21],0.14 °C
same,ΔTm,[22]; Compound concentration 10.0 uM,1.13 °C
same,ΔTm,[22]; [51],4.63 °C
same,ΔTm,[23],0.77 °C
same,ΔTm,[24],0.19 °C
same,ΔTm,[25],0.24 °C
same,ΔTm,[26],1.62 °C
same,ΔTm,[27],-0.08 °C
same,ΔTm,[28],0.56 °C
same,ΔTm,[29],0.24 °C
same,ΔTm,[30],0.39 °C
same,ΔTm,[31],-0.23 °C and 0.38 °C
same,ΔTm,[32],0.2 °C and 0.15 °C
same,ΔTm,[33],0.54 °C
same,ΔTm,[34],5.19 °C and 7.18 °C (2×)
same,ΔTm,[35]; Compound concentration 10.0 uM,0.98 °C
same,ΔTm,[35]; [51],2.54 °C
same,ΔTm,[36],0.83 °C
same,ΔTm,[37],0.34 °C
same,ΔTm,[38],1.04 °C
same,ΔTm,[39],0.52 °C
same,ΔTm,[40],1.1 °C
same,ΔTm,[41],-0.35 °C
same,ΔTm,[42],0.96 °C
same,ΔTm,[43],0.4 °C
same,ΔTm,Peregrin (Homo sapiens) [44],-0.08 °C
same,ΔTm,[45],0.5 °C
same,ΔTm,[46],-0.01 °C
same,ΔTm,[47],6.62 °C and 8.52 °C
same,ΔTm,[48],5.23 °C
same,ΔTm,[49],1.62 °C
same,ΔTm,[50],0.02 °C
